Where two headings read alike, the source gives them in different places.
Legend:
[1] = molecular target: Beta2; settings: read-out: Ki (nM) Beta2; PDSP database; ref PDSP http://pdsp.med.unc.edu/; cited from earlier work
[2] = molecular target: H3; settings: read-out: Ki (nM) H3; PDSP database; ref PDSP http://pdsp.med.unc.edu/; cited from earlier work
[3] = molecular target: D4; settings: read-out: Ki (nM) D4; PDSP database; ref PDSP http://pdsp.med.unc.edu/; cited from earlier work
[4] = molecular target: DAT; settings: read-out: Ki (nM) DAT; PDSP database; ref PDSP http://pdsp.med.unc.edu/; cited from earlier work
[5] = molecular target: KOR; settings: read-out: Ki (nM) KOR; PDSP database; ref PDSP http://pdsp.med.unc.edu/; cited from earlier work
[6] = molecular target: D5; settings: read-out: Ki (nM) D5; PDSP database; ref PDSP http://pdsp.med.unc.edu/; cited from earlier work
[7] = test system: 5-HT1A receptor; settings: ref Gao et al. 2011; Guo et al. 2009; cited from earlier work
[8] = molecular target: NET; settings: read-out: Ki (nM) NET; PDSP database; ref PDSP http://pdsp.med.unc.edu/; cited from earlier work
[9] = molecular target: T1, D2R (Homo sapiens, UniProt P14416); assay: Radioligand competition binding, [3H]-methylspiperone, HEK293 membranes; settings: competition with 0.5 nM [3H]-methylspiperone; n=3
[10] = molecular target: Alpha2A; settings: read-out: Ki (nM) Alpha2A; PDSP database; ref PDSP http://pdsp.med.unc.edu/; cited from earlier work
[11] = molecular target: 5-HT2B; settings: read-out: Ki (nM) 5-HT2B; PDSP database; ref PDSP http://pdsp.med.unc.edu/; cited from earlier work
[12] = molecular target: 5-HT2A; settings: read-out: Ki (nM) 5-HT2A; PDSP database; ref PDSP http://pdsp.med.unc.edu/; cited from earlier work
[13] = molecular target: T2, D5R (Homo sapiens, UniProt P21918); assay: DiscoveRx PathHunter β-arrestin-2 recruitment assay, CHO-K1 cells; assay type: cell-based; settings: agonist mode; concentrations up to 100 μM
[14] = molecular target: T2, D5R; assay: DiscoveRx HitHunter cAMP accumulation assay, HEK293 cells; assay type: cell-based; settings: agonist mode
[15] = molecular target: Beta1; settings: read-out: Ki (nM) Beta1; PDSP database; ref PDSP http://pdsp.med.unc.edu/; cited from earlier work
[16] = molecular target: 5-HT3; settings: read-out: Ki (nM) 5-HT3; PDSP database; ref PDSP http://pdsp.med.unc.edu/; cited from earlier work
[17] = molecular target: T3, D1R (Homo sapiens, UniProt P21728); assay: Radioligand competition binding, [3H]-SCH23390, HEK293 membranes; settings: competition with 0.5 nM [3H]-SCH23390; single site; n=3
[18] = molecular target: T1, D2R; assay type: cell-based; settings: agonist mode; 100 μM forskolin
[19] = molecular target: T4, D3R (Homo sapiens, UniProt P35462); assay: DiscoveRx PathHunter β-arrestin-2 recruitment assay, CHO-K1 cells; assay type: cell-based; settings: agonist mode; concentrations up to 100 μM
[20] = molecular target: Alpha2B; settings: read-out: Ki (nM) Alpha2B; PDSP database; ref PDSP http://pdsp.med.unc.edu/; cited from earlier work
[21] = molecular target: T3, D1R; assay: HTRF cAMP assay; assay type: cell-based; settings: agonist mode; Supplemental Fig. 1
[22] = molecular target: Alpha2C; settings: read-out: Ki (nM) Alpha2C; PDSP database; ref PDSP http://pdsp.med.unc.edu/; cited from earlier work
[23] = molecular target: M2; settings: read-out: Ki (nM) M2; PDSP database; ref PDSP http://pdsp.med.unc.edu/; cited from earlier work
[24] = molecular target: CB1; settings: read-out: Ki (nM) CB1; PDSP database; ref PDSP http://pdsp.med.unc.edu/; cited from earlier work
[25] = molecular target: M5; settings: read-out: Ki (nM) M5; PDSP database; ref PDSP http://pdsp.med.unc.edu/; cited from earlier work
[26] = molecular target: H2; settings: read-out: Ki (nM) H2; PDSP database; ref PDSP http://pdsp.med.unc.edu/; cited from earlier work
[27] = molecular target: T5, D4R (Homo sapiens, UniProt P21917); assay: Radioligand competition binding, [3H]-methylspiperone, CHO membranes; settings: competition with 0.5 nM [3H]-methylspiperone; n=3
[28] = molecular target: T4, D3R; assay: Radioligand competition binding, [3H]-methylspiperone, HEK293 membranes; settings: competition with 0.5 nM [3H]-methylspiperone; n=3
[29] = molecular target: D1-like receptors in bovine striatal membranes (Bos taurus, UniProt Q95136); assay: Bovine striatal radioligand binding assay, [3H]-SCH23390; settings: read-out: Ki, one-site fit, 0.5 nM [3H]-SCH23390
[30] = molecular target: H1; settings: read-out: Ki (nM) H1; PDSP database; ref PDSP http://pdsp.med.unc.edu/; cited from earlier work
[31] = molecular target: Sigma-1; settings: read-out: Ki (nM) Sigma-1; PDSP database; ref PDSP http://pdsp.med.unc.edu/; cited from earlier work
[32] = molecular target: D2; settings: read-out: Ki (nM) D2; PDSP database; ref PDSP http://pdsp.med.unc.edu/; cited from earlier work
[33] = molecular target: 5-HT6; settings: read-out: Ki (nM) 5-HT6; PDSP database; ref PDSP http://pdsp.med.unc.edu/; cited from earlier work
[34] = molecular target: T3, D1R; assay: DiscoveRx PathHunter β-arrestin-2 recruitment assay, CHO-K1 cells; assay type: cell-based; settings: agonist mode; concentrations up to 100 μM
[35] = molecular target: D1; settings: read-out: Ki (nM) D1; PDSP database; ref PDSP http://pdsp.med.unc.edu/; cited from earlier work
[36] = molecular target: 5-HT1D; settings: read-out: Ki (nM) 5-HT1D; PDSP database; ref PDSP http://pdsp.med.unc.edu/; cited from earlier work
[37] = molecular target: 5-HT1E; settings: read-out: Ki (nM) 5-HT1E; PDSP database; ref PDSP http://pdsp.med.unc.edu/; cited from earlier work
[38] = molecular target: D1R–D2R heteromer (Homo sapiens, UniProt P14416+P21728); assay: D1R–D2R-mediated calcium mobilization assay, co-transfected HEK293T cells; assay type: cell-based
[39] = molecular target: 5-HT5; settings: read-out: Ki (nM) 5-HT5; PDSP database; ref PDSP http://pdsp.med.unc.edu/; cited from earlier work
[40] = molecular target: Sigma-2; settings: read-out: Ki (nM) Sigma-2; PDSP database; ref PDSP http://pdsp.med.unc.edu/; cited from earlier work
[41] = molecular target: 5-HT1B; settings: read-out: Ki (nM) 5-HT1B; PDSP database; ref PDSP http://pdsp.med.unc.edu/; cited from earlier work
[42] = molecular target: T5, D4R; assay: DiscoveRx PathHunter β-arrestin-2 recruitment assay, CHO-K1 cells; assay type: cell-based; settings: agonist mode; concentrations up to 100 μM
[43] = molecular target: 5-HT7; settings: read-out: Ki (nM) 5-HT7; PDSP database; ref PDSP http://pdsp.med.unc.edu/; cited from earlier work
[44] = molecular target: GABA-A; settings: read-out: Ki (nM) GABA-A; PDSP database; ref PDSP http://pdsp.med.unc.edu/; cited from earlier work
[45] = molecular target: T3, D1R; settings: agonist mode; tested up to 0.1 mM
[46] = molecular target: Alpha1A; settings: read-out: Ki (nM) Alpha1A; PDSP database; ref PDSP http://pdsp.med.unc.edu/; cited from earlier work
[47] = molecular target: H4; settings: read-out: Ki (nM) H4; PDSP database; ref PDSP http://pdsp.med.unc.edu/; cited from earlier work
[48] = molecular target: 5-HT1A; settings: read-out: Ki (nM) 5-HT1A; PDSP database; ref PDSP http://pdsp.med.unc.edu/; cited from earlier work
[49] = molecular target: CB2; settings: read-out: Ki (nM) CB2; PDSP database; ref PDSP http://pdsp.med.unc.edu/; cited from earlier work
[50] = molecular target: SERT; settings: read-out: Ki (nM) SERT; PDSP database; ref PDSP http://pdsp.med.unc.edu/; cited from earlier work
[51] = molecular target: 5-HT2C; settings: read-out: Ki (nM) 5-HT2C; PDSP database; ref PDSP http://pdsp.med.unc.edu/; cited from earlier work
[52] = molecular target: T1, D2R; assay: DiscoveRx PathHunter β-arrestin-2 recruitment assay, CHO-K1 cells; assay type: cell-based; settings: agonist mode; concentrations up to 100 μM
[53] = molecular target: DOR; settings: read-out: Ki (nM) DOR; PDSP database; ref PDSP http://pdsp.med.unc.edu/; cited from earlier work
[54] = molecular target: D3; settings: read-out: Ki (nM) D3; PDSP database; ref PDSP http://pdsp.med.unc.edu/; cited from earlier work
[55] = ref Sun et al. (2009); cited from earlier work
[56] = molecular target: MOR; settings: read-out: Ki (nM) MOR; PDSP database; ref PDSP http://pdsp.med.unc.edu/; cited from earlier work
[57] = molecular target: Alpha1B; settings: read-out: Ki (nM) Alpha1B; PDSP database; ref PDSP http://pdsp.med.unc.edu/; cited from earlier work

## COc1cc2c(cc1O)[C@@H]1Cc3ccc(O)c(OC)c3CN1CC2 [(−)-stepholidine, (−)-Stepholidine]
[1]
  Ki: > 10000 nM
[2]
  Ki: > 10000 nM
[3]
  Ki: 3750 nM
[4]
  Ki: > 10000 nM
[5]
  Ki: > 10000 nM
[6]
  Ki: 4.4 nM
[7]
  functional profile at the 5-HT1A receptor: partial agonist
[8]
  Ki: > 10000 nM
[9]
  Ki: 0.0116 ± 0.0042 µM
[10]
  Ki: > 10000 nM
[11]
  Ki: 226 nM
[12]
  Ki: > 10000 nM
[13]
  agonist activity, β-arrestin-2 recruitment: failed to produce any measurable recruitment of β-arrestin-2
[14]
  agonist activity, cAMP accumulation: failed to produce any measurable cAMP accumulation
[15]
  Ki: > 10000 nM
[16]
  Ki: > 10000 nM
[17]
  Ki: 0.0051 ± 0.0023 µM
[18]
  agonist activity, inhibition of forskolin-stimulated cAMP accumulation: has no effect on inhibiting cAMP accumulation
[19]
  agonist activity, β-arrestin-2 recruitment: failed to produce any measurable recruitment of β-arrestin-2
[20]
  Ki: 6880 nM
[21]
  agonist activity, cAMP accumulation (HTRF): did not stimulate D1R-mediated cAMP accumulation
[22]
  Ki: 214 nM
[23]
  Ki: > 10000 nM
[24]
  Ki: > 10000 nM
[25]
  Ki: > 10000 nM
[26]
  Ki: > 10000 nM
[27]
  Ki: 1.45 µM
[28]
  Ki: 0.0234 ± 0.0087 µM
[29]; control, absence of GTPγS
  Ki: 0.016 ± 0.0024 µM
[29]; presence of 1 mM GTPγS
  Ki: 0.0192 ± 0.0044 µM
[30]
  Ki: > 10000 nM
[31]
  Ki: 1600 nM
[32]
  Ki: 974 nM
[33]
  Ki: > 10000 nM
[34]
  agonist activity, β-arrestin-2 recruitment: failed to produce any measurable recruitment of β-arrestin-2
[35]
  Ki: 5.9 nM
[36]
  Ki: > 10000 nM
[37]
  Ki: > 10000 nM
[38]; agonist mode, concentrations up to 50 μM
  agonist activity, Ca2+ mobilization: no Ca^2+ mobilization was detected
[38]; read-out: IC50, inhibition of dopamine-stimulated calcium mobilization, EC80 (1 μM) dopamine, n=3
  IC50: 0.0193 ± 0.0037 µM
[39]
  Ki: > 10000 nM
[40]
  Ki: 53.4 nM
[41]
  Ki: 6980 nM
[42]
  agonist activity, β-arrestin-2 recruitment: failed to produce any measurable recruitment of β-arrestin-2
[43]
  Ki: > 10000 nM
[44]
  Ki: > 10000 nM
[45]
  agonist activity, cAMP accumulation: has no effect on cAMP accumulation
[46]
  Ki: > 10000 nM
[47]
  Ki: > 10000 nM
[48]
  Ki: 143 nM
[49]
  Ki: > 10000 nM
[50]
  Ki: > 10000 nM
[51]
  Ki: > 10000 nM
[52]
  agonist activity, β-arrestin-2 recruitment: failed to produce any measurable recruitment of β-arrestin-2
[53]
  Ki: > 10000 nM
[54]
  Ki: 30.1 nM
[55]
  metabolism after administration: rapidly metabolized within minutes of administration
[56]
  Ki: > 10000 nM
[57]
  Ki: > 10000 nM

From paper PMC5234683 (Psychopharmacology, 2014)
